Assays:
Format in all cases: cell-based
[1] = system: OPM-2 cells; test: Cell viability assay (CellTiter-Glo), OPM-2; conditions: Homo sapiens, 24 hours incubation, 1% FBS, read-out: Average pIC50 by molecule OPM-2 (converted)
Source text: The effect of various compounds of the invention on the viability of OPM-2, MV-4-11 and ARH-77 cell lines was investigated, using the CTG protocol described below.
OPM-2 and MV-4-11 cell lines are derived from multiple myeloma and acute myeloid leukaemia, respectively. Both cell lines are described in the literature as MCL-1 dependent lines, as opposed to lymphoblast-like ARH-77 cell line, which is described as independent of MCL-1 (Tron A E et al. Nat Commun. 2018; 9: 5341; Caenepeel S et al. Cancer Discov. 2018 December; 8(12):1582-1597).
Cells (OPM-2, MV-4-11 or ARH-77) were seeded on […] in a growth medium with FBS reduced to 1%. Next, compound stocks were pre-diluted in DMSO and added directly to the cells growth medium (final DMSO concentration: 0.5%). Compound concentrations used in this assay: 1/3 dilutions starting at 30 uM (9 to 12 points).
After 24 hours of incubation, cell viability was evaluated using CellTiter-Glo Luminescent Cell Viability Assay (Promega, cat #G7572). Luminescence signal was measured using a CLARIOstar Plus Multi-Mode Microplate Reader (574-590 nm).
Results were normalized to DMSO control.

[2] = target: T1, MCL-1 protein (Homo sapiens, UniProt Q07820); test: Dose-dependent MCL-1 protein degradation and induction of apoptosis in cancer cells, Western blot; design: endogenous in cells; host or cells: OPM-2, MV-4-11, DMS 114; conditions: for degradation of MCL-1 protein and apoptosis of OPM2 cells compared to dMCL1-2 and C3: FIG. 2 and FIG. 3
T1 sequence (Q07820 whole entry): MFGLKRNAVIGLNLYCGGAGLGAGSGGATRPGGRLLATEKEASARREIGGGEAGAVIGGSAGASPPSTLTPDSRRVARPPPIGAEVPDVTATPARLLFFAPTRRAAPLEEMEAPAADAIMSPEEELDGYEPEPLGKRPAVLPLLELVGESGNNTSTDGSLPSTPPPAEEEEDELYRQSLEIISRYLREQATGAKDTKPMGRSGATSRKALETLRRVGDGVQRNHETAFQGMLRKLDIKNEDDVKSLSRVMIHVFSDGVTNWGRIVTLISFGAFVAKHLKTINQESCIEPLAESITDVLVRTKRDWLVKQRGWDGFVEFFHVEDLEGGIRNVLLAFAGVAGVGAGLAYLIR
Experimental: The experiments were performed as described for the “OPM-2 cells: MCL-1 protein degradation, Western blot” and “DMS 114 cells: MCL-1 protein degradation, Western blot”.
In addition to MCL-1 and α-Tubulin, PARP and cleaved caspase-3 were detected to monitor apoptosis.
FIG. 2 presents the results of MCL-1 protein degradation and induction of apoptosis for the OPM-2 cells treated with 204 or 215 at 0.01, 0.1 or 1 μM concentration for 6 hours or 24 hours, as indicated.
FIG. 3A presents the results of MCL-1 protein degradation and induction of apoptosis for the OPM-2 cells treated with 204 and control compounds dMCL1-2 (Papatzimas et al., J. Med. Chem. 2019, 62, 11, 5522-5540) at 0.01, 0.03, 0.1, 0.3 or 1 μM concentration for 3 hours, 6 hours or 24 hours, as indicated.
FIG. 3B presents the results of MCL-1 protein degradation and induction of apoptosis for the MV-4-11 cells treated with 204 and control compounds C3 (Wang Z et al., J. Med. Chem. 2019, 62, 17, 8152-8163) at 0.1, 1 or 10 μM concentration for 24 hours, as indicated.
FIG. 3C presents the results of MCL-1 protein degradation and induction of apoptosis for the OPM-2 cells treated with 220, 268, 346 and control compounds dMCL1-2 at 0.03, 0.1, 0.3, 1 μM concentration for 6 hours, as indicated.
FIG. 3D presents the results of MCL-1 protein degradation and induction of apoptosis for the OPM-2 cells treated with 220, 342 at 0.1, 1, 10 μM concentration for 6 hours, as indicated.
FIG. 3E presents the results of MCL-1 protein degradation and induction of apoptosis for the DMS 114 cells treated with 204, 220, 268, 346 at 0.1, 1, 10 μM concentration for 6 hours, as indicated.

[3] = target: T1, MCL-1 protein; test: OPM-2 cells: MCL-1 protein degradation, Western blot; design: endogenous in cells; host or cells: OPM-2; conditions: OPM-2 cell line, 6 h treatment, 100 nM compound, vs DMSO
Source text: The effect of various compounds of the invention and the reference compounds on MCL-1 protein degradation in the OPM-2 cell line was investigated, using the degradation assay protocol below.
OPM-2 cells were maintained in RPMI-1640 medium, supplemented with penicillin/streptomycin and 10% Fetal Bovine Serum (FBS). During the treatment, FBS concentration was reduced to 1%.
Compound stocks were pre-diluted in DMSO and added directly to the cells growth medium (final DMSO concentration: 0.5%).
OPM-2 cells were collected, centrifuged (250 rcf, 5 min), resuspended in a growth medium containing 1% FBS and counted. The cell suspension was then adjusted to 1×10^6 cell/ml using a growth medium containing 1% FBS. Afterwards, 0.5×10^6 cells were seeded on 24-well plates in 0.5 mL of medium per well. Immediately after seeding cells, compounds in appropriate concentrations were added to the cell culture medium.
Following the treatment with the compounds, cells were collected from the plates and suspended in a lysis buffer (2% SDS, 50 mM Tris, pH 8.0, 100 U/ml Pierce Universal Nuclease for Cell Lysis, complete EDTA-free Protease Inhibitor Cocktail) and incubated on ice for 45 min. The amount of protein was determined via BCA assay, and the equal quantity of each sample was loaded on the precast gel for the protein separation. Following the electrophoresis and transfer to the membrane, the membrane was stained with Ponceau (0.1% (w/v) Ponceau in 5% acetic acid). After total protein detection, the stain was washed out using TBST. After the antibody staining for MCL-1 and α-tubulin, the membranes were washed and signals developed.
Densitometric values for MCL-1 were normalized to total protein level (the Ponceau Staining). [%] of protein reduction is calculated in comparison to the cells treated with DMSO, which stand for 0%.
The results for the 6 h treatment with 100 nM compounds are shown in Table 9, using the following labels: • <30% for 0-29% of MCL-1 protein reduction, • ≥30% for 30-49% of MCL-1 protein reduction, • ≥50% for 50-100% of MCL-1 protein reduction.

[4] = system: MV-4-11 cells; test: Cell viability assay (CellTiter-Glo), MV-4-11; conditions: Homo sapiens, MV4-11, 24 hours incubation, 1% FBS, read-out: Average pIC50 by molecule MV-4-11 (converted)
Procedure, shortened: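 OPM-2, MV-4-11 and ARH-77 cells were grown in medium with 1% FBS and treated with compound in 1/3 dilutions from 30 uM (9–12 points, 0.5% DMSO). Viability was read by CellTiter-Glo luminescence after 24 hours and normalized to DMSO control.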

[5] = system: MV-4-11 cells; test: Mitochondrial potential changes in cancer cells, flow cytometry (TMRE); conditions: 5 hours
Experimental: The effect of compounds 220 and 268 of the invention in MV-4-11 cells was investigated using the following protocol.
MV-4-11 cells were seeded on 384-well plates (0.05 ml) in growth medium containing 1% FBS and 50 nM tetramethylrhodamine ethyl ester (TMRE). Immediately after seeding, compounds in appropriate concentrations were added directly to the cell culture medium. After 5 hours incubation, cells were analyzed by flow cytometry (LSR Fortessa X-20; BD Biosciences). Results were evaluated using FlowJo (V10) software.
FIG. 7 presents the effect of the compound in the mitochondrial potential of MV-4-11 cells treated with 220 for 5 hours. Compound concentration is specified in the top-left corner of each histogram; Dimethyl sulfoxide (DMSO) was used as vehicle control. Population of interest and the percentage of cells included are highlighted with a red bar and shown in bold red ink, respectively.
FIG. 8 presents the concentration dependent decrease (compared to DMSO control) of the population of cells with normal polarized mitochondria after treatment of MV-4-11 cells with the compounds 220 and 268 for 5 hours.

SMILES | degradation of MCL-1 protein and apoptosis of OPM2 cells compared to dMCL1-2 and C3 [2] | MCL-1 protein degradation and induction of apoptosis compared with control compounds ([2]; OPM-2 cells vs dMCL1-2, MV-4-11 cells vs C3 (FIG. 3A, 3B)) | Western blot, % of protein reduction [3] [%] | IC50 [4] [nM] | IC50 [1] [nM] | mitochondrial potential (population of cells with normal polarized mitochondria) [5]
Cc1nn(C)c(C)c1-c1c(Cl)ccc2c(CCCOc3cccc4ccccc34)c(C(=O)O)n(CCN3CCN(C(=O)COc4cccc5c4C(=O)N(C4CCC(=O)NC4=O)C5=O)CC3)c12 (stereo not shown) [Compound 204, 6-chloro-1-(2-(4-(2-((2-(2,6-dioxopiperidin-3-yl)-1,3-dioxoisoindolin-4-yl)oxy)acetyl)piperazin-1-yl)ethyl)-3-(3-(naphthalen-1-yloxy)propyl)-7-(1,3,5-trimethyl-1H-pyrazol-4-yl)-1H-indole-2-carboxylic acid] | improved potency | more potent | ≥50 | ≤ 100 | ≤ 1000 | 
Cc1nn(C)c(C)c1-c1c(F)ccc2c(CCCOc3cccc4cc(F)ccc34)c(C(=O)O)n(CCN3CCN(C(=O)COc4cccc5c4C(=O)N(C4CCC(=O)NC4=O)C5=O)CC3)c12 (stereo not shown) [Compound 215, 1-{2-[4-(2-{[2-(2,6-dioxopiperidin-3-yl)-1,3-dioxo-2,3-dihydro-1H-isoindol-4-yl]oxy}acetyl)piperazin-1-yl]ethyl}-6-fluoro-3-{3-[(6-fluoronaphthalen-1-yl)oxy]propyl}-7-(1,3,5-trimethyl-1H-pyrazol-4-yl)-1H-indole-2-carboxylic acid] | improved potency |  | ≥50 | ≤ 100 | ≤ 1000 | 
Cc1nn2c(c1-c1c(Cl)ccc3c(CCCOc4cccc5cc(F)ccc45)c(C(=O)O)n(CCN4CCN(C(=O)COc5cccc6c5CN(C5CCC(=O)NC5=O)C6=O)CC4)c13)COCC2 (stereo not shown) [Compound 346, 6-Chloro-1-(2-(4-(2-((2-(2,6-dioxopiperidin-3-yl)-1-oxoisoindolin-4-yl)oxy)acetyl)piperazin-1-yl)ethyl)-3-(3-((6-fluoronaphthalen-1-yl)oxy)propyl)-7-(2-methyl-6,7-dihydro-4H-pyrazolo[5,1-c][1,4]oxazin-3-yl)-1H-indole-2-carboxylic acid] | improved potency |  | ≥50 | ≤ 100 |  | 

Continued, in another order:

degradation of MCL-1 protein and apoptosis of OPM2 cells compared to dMCL1-2 and C3 [2] | MCL-1 protein degradation and induction of apoptosis compared with control compounds ([2]; OPM-2 cells vs dMCL1-2, MV-4-11 cells vs C3 (FIG. 3A, 3B)) | Western blot, % of protein reduction [3] [%] | IC50 [4] [nM] | SMILES | IC50 [1] [nM] | mitochondrial potential (population of cells with normal polarized mitochondria) [5]
improved potency |  | ≥50 | ≤ 31.6 | Cc1nn(C)c(C)c1-c1c(Cl)ccc2c(CCCOc3cccc4cc(F)ccc34)c(C(=O)O)n(CCN3CCN(C(=O)COc4cccc5c4CN(C4CCC(=O)NC4=O)C5=O)CC3)c12 (stereo not shown) [Compound 220, 6-chloro-1-{2-[4-(2-{[2-(2,6-dioxopiperidin-3-yl)-1-oxo-2,3-dihydro-1H-isoindol-4-yl]oxy}acetyl)piperazin-1-yl]ethyl}-3-{3-[(6-fluoronaphthalen-1-yl)oxy]propyl}-7-(1,3,5-trimethyl-1H-pyrazol-4-yl)-1H-indole-2-carboxylic acid] |  | concentration dependent depolarization of mitochondria
improved potency |  | ≥50 |  | Cc1nn(C)c(C)c1-c1c(Cl)ccc2c(CCCOc3cccc4cc(F)ccc34)c(C(=O)O)n(CCN3CCN(C(=O)Cn4c(C)nc5c(C(=O)NC6CCC(=O)NC6=O)cccc54)CC3)c12 (stereo not shown) [Compound 268, 6-chloro-1-{2-[4-(2-{4-[(2,6-dioxopiperidin-3-yl)carbamoyl]-2-methyl-1H-1,3-benzodiazol-1-yl}acetyl)piperazin-1-yl]ethyl}-3-{3-[(6-fluoronaphthalen-1-yl)oxy]propyl}-7-(1,3,5-trimethyl-1H-pyrazol-4-yl)-1H-indole-2-carboxylic acid] |  | concentration dependent depolarization of mitochondria
